{
  "source": "paper PMC6448587",
  "about": "(Biochemistry, 2019)",
  "key": {"[1]": {"target": "CYP3A4 (Homo sapiens, UniProt P08684)", "settings": "human, probe 7-benzyloxy-4-(trifluoromethyl)coumarin (BFC)"}, "[2]": {"target": "T1, Δ3–22 human CYP3A4 (WT) (Homo sapiens, UniProt P08684)"}, "[3]": {"system": "Candida albicans CYP51", "settings": "read-out: Kd for Candida albicans CYP51; cited from earlier work"}, "[4]": {"system": "Candida albicans CYP51", "settings": "read-out: IC50 for Candida albicans CYP51; cited from earlier work"}, "[5]": {"system": "CYP3A4", "settings": "ref 39 (Godamudunage et al.); cited from earlier work"}, "[6]": {"target": "T2, R212A mutant of CYP3A4 (Homo sapiens, UniProt P08684, R212A)", "assay": "biochemical"}, "[7]": {"target": "T3, full-length human CYP3A4 (Homo sapiens, UniProt P08684)"}, "[8]": {"target": "T1, Δ3–22 human CYP3A4 (WT)", "assay": "biochemical"}, "[9]": {"target": "T4, S119A mutant of CYP3A4 (Homo sapiens, UniProt P08684, S119A)", "assay": "biochemical"}, "[10]": {"target": "T4, S119A mutant of CYP3A4"}, "[11]": {"target": "T2, R212A mutant of CYP3A4"}, "[12]": {"target": "T3, full-length human CYP3A4", "remark": "listed apart in the source"}, "[13]": {"settings": "pH 7.5; cited from earlier work"}},
  "note": "Read-outs that look alike come from different tables or passages of the source.",
  "data": [
    {"smiles": "OC(Cn1cncn1)(Cn1cncn1)c1ccc(F)cc1F", "note": "[Fluconazole]", "values": [
      {"measurement": "IC50", "setting": "[1]", "result": 21, "unit": "µM"},
      {"measurement": "Type of spectral changes induced during equilibrium titrations", "setting": "[2]; WT CYP3A4", "result": "[…]"},
      {"measurement": "Kd", "setting": "[3]", "result": 47, "unit": "nM"},
      {"measurement": "IC50", "setting": "[4]", "result": "600 to 1200", "unit": "nM"},
      {"measurement": "IC50", "setting": "[5]", "result": "[…]"}
    ]},
    {"smiles": "CC(C)(C(=O)c1cccnc1)c1cccnc1", "note": "[Metyrapone]", "values": [
      {"measurement": "Kd", "setting": "[6]", "result": "1600 ± 100", "unit": "nM"},
      {"measurement": "IC50", "setting": "[7]", "result": "18 ± 2", "unit": "µM"},
      {"measurement": "IC50 estimate relative to that for microsomal CYP3A4 (fold higher)", "setting": "[7]; reconstituted system vs microsomal CYP3A4 (ref 21)", "result": 3, "unit": "fold"},
      {"measurement": "Kd", "setting": "[8]", "result": "2400 ± 100", "unit": "nM"},
      {"measurement": "Kd", "setting": "[9]", "result": "3.4 ± 0.1", "unit": "µM"},
      {"measurement": "Type of spectral changes induced during equilibrium titrations", "setting": "[2]; WT CYP3A4", "result": "type II"},
      {"measurement": "Decrease in ΔAmax relative to WT", "setting": "[10]; S119A vs WT", "result": 9, "unit": "%"},
      {"measurement": "Increase in Ks relative to WT", "setting": "[10]; S119A vs WT", "result": 42, "unit": "%"},
      {"measurement": "Decrease in Ks relative to WT", "setting": "[11]; R212A vs WT", "result": 33, "unit": "%"},
      {"measurement": "Decrease in ΔAmax relative to WT", "setting": "[11]; R212A vs WT", "result": 6, "unit": "%"}
    ]},
    {"smiles": "O=S(=O)(O)Cc1ccccc1", "note": "[PMSA, phenylmethanesulfonic acid]", "values": [
      {"measurement": "Fold lower affinity for CYP3A4 than PMSF", "setting": "[2]", "result": "~ 6 fold"},
      {"measurement": "Type of spectral changes induced during equilibrium titrations", "setting": "[2]", "result": "type I"},
      {"measurement": "Kd", "setting": "[2]; pH 7.4", "result": "15.4 ± 2.06", "unit": "mM"},
      {"measurement": "Spectral changes in the presence of ligand", "setting": "[10]", "result": "neither mutant exhibits spectral changes"},
      {"measurement": "Effect on CYP3A4 activity (inhibitory assays), in words", "setting": "[12]", "result": "only negligibly affects CYP3A4 activity"},
      {"measurement": "IC50", "setting": "[12]", "result": "> 20", "unit": "mM"},
      {"measurement": "Spectral changes in the presence of ligand", "setting": "[11]", "result": "neither mutant exhibits spectral changes"}
    ]},
    {"smiles": "O=S(=O)(F)Cc1ccccc1", "note": "[PMSF, phenylmethylsulfonyl fluoride]", "values": [
      {"measurement": "Type of spectral changes induced during equilibrium titrations", "setting": "[2]; WT CYP3A4", "result": "type I"},
      {"measurement": "t1/2 in aqueous solutions", "setting": "[13]", "result": 55, "unit": "min"},
      {"measurement": "High-spin shift relative to WT", "setting": "[10]; S119A variant", "result": "~ 30 % of WT"},
      {"measurement": "Fold decrease in binding affinity by mutation", "setting": "[10]; S119A vs WT", "result": 4, "unit": "fold"},
      {"measurement": "Fold decrease in binding affinity by mutation", "setting": "[11]; R212A vs WT", "result": 4, "unit": "fold"}
    ]}
  ]
}
